Measurements as given in patent US4606857A, “Muramyldipeptide derivatives” (priority 1982, dated 1986).

Key:
Format in all cases: in vivo
E. coli E77156 = test: Prophylactic effect against microbial infection in mice; conditions: STD-ddy male mice, 100 μg/mouse s.c. 24 hours before s.c. challenge
Method: (2) Prophylactic Effect Against Microbial Infection
Animals: Groups of 20 STD-ddy male mice, 5 weeks of age, were used.
Bacteria: E. coli E77156 which has been maintained in a freezed-culture was used.
Agents: Compounds of the present invention were dissolved or suspended in Dulbecco phosphate-buffered saline (PBS: pH 7.4) at a concentration of 500 μg/ml just before use.
Treatment and Infection: The animals were treated subcutaneously with 0.2 ml of each of the above solution or suspension (equivalent to 100 μg/mouse), followed by the subcutaneous challenge with E. coli 24 hours later.
The effect was judged from the percent survival of the mice seven days after the infection.

[1] = system: delayed-type hypersensitivity to N-acetyltyrosine-3-azobenzene-4'-arsonic acid (ABA-N-Ac-Tyr); test: Adjuvant activity: enhancement of induction of delayed-type hypersensitivity (skin reaction); conditions: guinea pig, 100 μg/animal compound with 50 μg ABA-N-Ac-Tyr in FIA into soles, 100 μg ABA-BSA intradermal two weeks later, mean ± SE; for Skin Reaction 24 Hours (diameter of erythema and induration): read 24 hours after injection; for Skin Reaction 48 Hours (diameter of erythema and induration): read 48 hours after injection
Method: The adjuvant activity was confirmed by the enhancing activity on the induction of delayed-type hypersensitivity to N-acetyltyrosine-3-azobenzene-4'-arsonic acid (hereinafter referred to as ABA-N-Ac-Tyr) in guinea pig.
That is, a water-in-oil emulsion prepared by mixing 50 μg/animal of ABA-N-Ac-Tyr and 100 μg/animal of each of the compounds of the present invention with Freund's incomplete adjuvant (hereinafter referred to as FIA) was administered to the soles of guinea pigs. Two weeks later, 100 μg of 3-azobenzene-4'-arsonic acid bonded to bovine serum albumin (hereinafter referred to as ABA-BSA) was intradermally injected and the diameter of skin reaction (i.e., erythema and induration) was measured 24 hours and 48 hours after the injection. The diameter of the skin reaction is considered a measure of cellular immunity.

Meth-A tumor cells = test: Antitumor activity against Meth-A system; conditions: BALB/c mice; Meth-A 1.5×10^6 cells mixed with 100 μg compound in PBS, intradermal; 27th day after inoculation
Method: (3) Antitumor Activity Against Meth-A System
A mixture of tumor cells (Meth-A, 1.5×10^6) and 100 μg of Compound 20 of the present invention suspended in PBS was inoculated intradermally in BALB/c mice. […] The value is expressed in terms of the number of tumor-free mice/the number of mice tested.

[2] = inoculum 6.17 × 10^6 cells/mouse
[3] = inoculum 4.4 × 10^6 cells/mouse

Row | SMILES | % Survival 7 days after Infection (E. coli E77156; [2]) [%] | Skin Reaction 24 Hours (diameter of erythema and induration) [1] [mm] | Skin Reaction 48 Hours (diameter of erythema and induration) [1] [mm] | other results
1 | CCCCCCCCCCCCCCCCCC(=O)S[C@@H]1O[C@H](CO)[C@@H](O)[C@H](O[C@H](C)C(=O)N[C@@H](C)C(=O)N[C@H](CCC(=O)OC)C(N)=O)[C@H]1NC(C)=O [Compound 19, 2-Acetamido-2-deoxy-1-S-octadecanoyl-3-O-(D-2-propanoyl-L-alanyl-D-isoglutaminemethyl ester)-1-thio-β-D-glucopyranose] | 70 | – | – | –
2 | CCCCCCCCCCCCCCCCCCCC(=O)S[C@@H]1O[C@H](CO)[C@@H](O)[C@H](O[C@H](C)C(=O)N[C@@H](C)C(=O)N[C@H](CCC(=O)O)C(N)=O)[C@H]1NC(C)=O [Compound 25, 2-Acetamido-2-deoxy-1-S-eicosanoyl-3-O-(D-2-propanoyl-L-alanyl-D-isoglutamine)-1-thio-β-D-glucopyranose] | – | – | – | % Survival 7 days after Infection (E. coli E77156; inoculum 6.88 × 10^6 cells/mouse): 55%
3 | CCCCSC1OC(CO)C(O)C(OC(C)C(=O)NC(C)C(=O)NC(CCC(=O)O)C(N)=O)C1NC(C)=O [Compound 10, 1-S-n-Butyl 2-acetamido-2-deoxy-3-O-(D-2-propanoyl-L-alanyl-D-isoglutamine)-1-thio-β-D-glucopyranoside] | – | 17.4 ± 1.7 | 13.6 ± 1.8 | –
4 | CC(=O)NC1C(S)OC(CO)C(O)C1OC(C)C(=O)NC(C)C(=O)NC(CCC(=O)O)C(N)=O [Compound 4, 2-acetamido-2-deoxy-3-O-(D-2-propanoyl-L-alanyl-D-isoglutamine)-1-thio-β-D-glucopyranose] | – | 23.1 ± 1.2 | 21.0 ± 1.3 | % Survival 7 days after Infection (E. coli E77156; [3]): 55%
5 | CCCCCCCCCCCCCC(=O)SC1OC(CO)C(O)C(OC(C)C(=O)NC(C)C(=O)NC(CCC(=O)O)C(N)=O)C1NC(C)=O [Compound 23, 2-Acetamido-2-deoxy-1-S-tetradecanoyl-3-O-(D-2-propanoyl-L-alanyl-D-isoglutamine)-1-thio-β-D-glucopyranose] | 60 | – | – | –
6 | CCCCCCCCCCCCCCCCCCCCCCCCCCCCCC(=O)S[C@@H]1O[C@H](CO)[C@@H](O)[C@H](O[C@H](C)C(=O)N[C@@H](C)C(=O)N[C@H](CCC(=O)OC)C(N)=O)[C@H]1NC(C)=O [Compound 20, 2-Acetamido-2-deoxy-1-S-triacontanoyl-3-O-(D-2-propanoyl-L-alanyl-D-isoglutaminemethyl ester)-1-thio-β-D-glucopyranose] | – | – | – | Suppression of Meth-A growth (number of tumor-free mice/number of mice tested) (Meth-A tumor cells): 5/9
7 | CCCC(=O)S[C@@H]1O[C@H](CO)[C@@H](O)[C@H](O[C@H](C)C(=O)N[C@@H](C)C(=O)N[C@H](CCC(=O)OC)C(N)=O)[C@H]1NC(C)=O [Compound 21, 2-Acetamido-2-deoxy-1-S-n-butanoyl-3-O-(D-2-propanoyl-L-alanyl-D-isoglutaminemethyl ester)-1-thio-β-D-glucopyranose] | 50 | – | – | –
8 | CCCCCCCCCCCC(=O)S[C@@H]1O[C@H](CO)[C@@H](O)[C@H](O[C@H](C)C(=O)N[C@@H](C)C(=O)N[C@H](CCC(=O)O)C(N)=O)[C@H]1NC(C)=O [Compound 22, 2-Acetamido-2-deoxy-1-S-dodecanoyl-3-O-(D-2-propanoyl-L-alanyl-D-isoglutamine)-1-thio-β-D-glucopyranose] | 55 | – | – | –
9 | CCCCS[C@@H]1O[C@H](CO)[C@@H](O)[C@H](O[C@H](C)C(=O)N[C@@H](C)C(=O)N[C@H](CCC(=O)OC)C(N)=O)[C@H]1NC(C)=O [Compound 8, 1-S-n-Butyl 2-acetamido-2-deoxy-3-O-(D-2-propanoyl-L-alanyl-D-isoglutaminemethyl ester)-1-thio-β-D-glucopyranoside] | – | 14.5 ± 0.7 | 10.3 ± 1.0 | –
10 | CCCCCCCCCCCCCCCCSC1OC(CO)C(O)C(OC(C)C(=O)NC(C)C(=O)NC(CCC(=O)OC)C(N)=O)C1NC(C)=O [Compound 9, 1-S-Hexadecanyl 2-acetamido-2-deoxy-3-O-(D-2-propanoyl-L-alanyl-D-isoglutaminemethyl ester)-1-thio-β-D-glucopyranoside] | – | 13.5 ± 0.8 | 12.4 ± 0.7 | –
11 | CCCCCCCCCCCCCC(=O)S[C@@H]1O[C@H](CO)[C@@H](O)[C@H](O[C@H](C)C(=O)N[C@@H](C)C(=O)N[C@H](CCC(=O)OC)C(N)=O)[C@H]1NC(C)=O [Compound 24, 2-Acetamido-2-deoxy-1-S-tetradecanoyl-3-O-(D-2-propanoyl-L-alanyl-D-isoglutaminemethyl ester)-1-thio-β-D-glucopyranose] | 65 | – | – | –
12 | CCCCCCCCCCCCCCCC(=O)S[C@@H]1O[C@H](CO)[C@@H](O)[C@H](O[C@H](C)C(=O)N[C@@H](C)C(=O)N[C@H](CCC(=O)O)C(N)=O)[C@H]1NC(C)=O [Compound 17, 2-Acetamido-2-deoxy-1-S-hexadecanoyl-3-O-(D-2-propanoyl-L-alanyl-D-isoglutamine)-1-thio-β-D-glucopyranose] | – | 21.8 ± 0.8 | 23.1 ± 1.1 | % Survival 7 days after Infection (E. coli E77156; [3]): 60%
13 | CCCCCCCCCCCCCCCC(=O)S[C@@H]1O[C@H](CO)[C@@H](O)[C@H](O[C@H](C)C(=O)N[C@@H](C)C(=O)N[C@H](CCC(=O)OC)C(N)=O)[C@H]1NC(C)=O [Compound 14, 2-Acetamido-2-deoxy-1-S-hexadecanoyl-3-O-(D-2-propanoyl-L-alanyl-D-isoglutaminemethyl ester)-1-thio-β-D-glucopyranose] | – | 20.4 ± 0.7 | 21.0 ± 1.4 | % Survival 7 days after Infection (E. coli E77156; [3]): 80%
14 | CCCCCCCCCCCCCCCC(=O)SC1OC2COC(C)(C)OC2C(OC(C)C(=O)NC(C)C(=O)NC(CCC(=O)O)C(N)=O)C1NC(C)=O [Compound 16, 2-Acetamido-2-deoxy-1-S-hexadecanoyl-4,6-O-isopropylidene-3-O-(D-2-propanoyl-L-alanyl-D-isoglutamine)-1-thio-β-D-glucopyranose] | – | 11.3 ± 0.8 | 5.6 ± 1.4 | –
15 | CCCCCCCCCC(=O)S[C@@H]1O[C@H](CO)[C@@H](O)[C@H](O[C@H](C)C(=O)N[C@@H](C)C(=O)N[C@H](CCC(=O)OC)C(N)=O)[C@H]1NC(C)=O [Compound 18, 2-Acetamido-2-deoxy-1-S-decanoyl-3-O-(D-2-propanoyl-L-alanyl-D-isoglutaminemethyl ester)-1-thio-β-D-glucopyranose] | 90 | – | – | –
16 | CCCCCCCCCCCCCCCCSC1OC(CO)C(O)C(OC(C)C(=O)NC(C)C(=O)NC(CCC(=O)O)C(N)=O)C1NC(C)=O [Compound 11, 1-S-Hexadecanyl 2-acetamido-2-deoxy-3-O-(D-2-propanoyl-L-alanyl-D-isoglutamine)-1-thio-β-D-glucopyranoside] | – | 15.6 ± 1.9 | 11.6 ± 1.4 | –
17 | COC(=O)CC[C@@H](NC(=O)[C@H](C)NC(=O)[C@@H](C)O[C@H]1[C@H](O)[C@@H](CO)O[C@@H](SC(C)=O)[C@@H]1NC(C)=O)C(N)=O [Compound 2, 2-Acetamido-1-S-acetyl-2-deoxy-3-O-(D-2-propanoyl-L-alanyl-D-isoglutaminemethyl ester)-1-thio-β-D-glucopyranose] | – | 21.0 ± 1.0 | 21.0 ± 0.7 | –
18 | CC(=O)NC1C(S)OC2COC(C)(C)OC2C1OC(C)C(=O)NC(C)C(=O)NC(CCC(=O)O)C(N)=O [Compound 15, 2-Acetamido-2-deoxy-4,6-O-isopropylidene-3-O-(D-2-propanoyl-L-alanyl-D-isoglutamine)-1-thio-β-D-glucopyranose] | – | 16.9 ± 0.8 | 14.0 ± 1.0 | –
19 | COC(=O)CC[C@@H](NC(=O)[C@H](C)NC(=O)[C@@H](C)O[C@H]1[C@H](O)[C@@H](CO)O[C@@H](S)[C@@H]1NC(C)=O)C(N)=O [Compound 3, 2-Acetamido-2-deoxy-3-O-(D-2-propanoyl-L-alanyl-D-isoglutaminemethyl ester)-1-thio-β-D-glucopyranose] | – | 22.1 ± 0.9 | 20.9 ± 0.7 | –
